Test results reported in paper PMC7501296, “Rapid and direct control of target protein levels with VHL-recruiting dTAG molecules” (Nature Communications, 2020).
Where “and” joins values, the source holds several entries; their conditions need not be identical. Equal values may be shown once.

What was measured:
Type in all cases: cell-based
FKBP12^WT-Nluc = biological target: T1, FKBP12^WT-Nluc (Homo sapiens, UniProt P62942); test: FKBP12WT-Nluc dual luciferase assay (293FT); conditions: 293FT FKBP12WT-Nluc, 24 h
T1 construct: expressed in transfected cells; host or cells: 293FT
Procedure: (§1) Dual luciferase assays were performed using 293FT FKBP12^WT-Nluc and FKBP12^F36V-Nluc cells. In brief, cells were plated at 2000 cells per well in 20 µL of appropriate media in 384-well white culture plates (Corning), allowed to adhere overnight, and 100 nL of compounds were added using a Janus Workstation pin tool (PerkinElmer) for 24 h at 37 °C. To evaluate Fluc signal, plates were brought to room temperature, 20 µL of Dual-Glo Reagent (Promega) was added for 10 min and luminescence was measured on an Envision 2104 plate reader (PerkinElmer). Subsequently, 20 µL of Dual-Glo Stop & Glo Reagent (Promega) was added for 10 min and luminescence was again measured to capture Nluc signal. DMSO-normalized ratios of Nluc/Fluc signal was analyzed and plotted using GraphPad PRISM v8[6].

FKBP12^F36V-Nluc = biological target: T2, FKBP12^F36V-Nluc (Homo sapiens, UniProt P62942, F37V); test: FKBP12F36V-Nluc dual luciferase assay (293FT); conditions: 293FT FKBP12F36V-Nluc, 24 h
T2 construct: expressed in transfected cells; host or cells: 293FT
Procedure: as §1

[1] = tested on: PATU-8902 LACZ-FKBP12^F36V clone; test: Antiproliferation, PATU-8902 LACZ-FKBP12F36V clone, 3D-spheroid (CellTiter-Glo)
Procedure: (§2) Cell viability was assayed in 2D-adherent or ultra-low adherent 3D-spheroids using CellTiter-Glo (Promega)[6],[15]. Luminescence was measured on an Envision 2104 plate reader (PerkinElmer) and Fluostar Omega Reader (BMG Labtech) and data was analyzed using GraphPad PRISM v8. Synergy assessments were performed using CellTiter-Glo (Promega) with the following modifications to the protocol described in the ref. [34]. In brief, EWS502 cells were plated at 1000 cells per well in 50 µL of appropriate media in 384-well white culture plates (Corning) allowed to adhere overnight, and 100 nL of compounds were added using a Janus Workstation pin tool (PerkinElmer) for 72 h. Cell viability was measured by addition of 10 µL of CellTiter-glo (Promega), followed by incubation for 15 minutes at room temperature. Luminescence was measured on an Envision 2104 plate reader (PerkinElmer) and data was analyzed using GraphPad PRISM v8.

[2] = tested on: PATU-8902 FKBP12^F36V-KRAS^G12V; KRAS^-/- clone; test: Antiproliferation, PATU-8902 FKBP12F36V-KRASG12V; KRAS-/- clone, 3D-spheroid (CellTiter-Glo); conditions: FKBP12F36V-KRASG12V, KRAS-/-, 3D-spheroid, replicate values
Procedure: as §2

[3] = tested on: PATU-8902 LACZ-FKBP12^F36V clone; test: Antiproliferation, PATU-8902 LACZ-FKBP12F36V clone, 2D-monolayer (CellTiter-Glo)
Procedure: as §2

[4] = tested on: PATU-8902 FKBP12^F36V-KRAS^G12V; KRAS^-/- clone; test: Antiproliferation, PATU-8902 FKBP12F36V-KRASG12V; KRAS-/- clone, 2D-monolayer (CellTiter-Glo)
Procedure: as §2

[5] = log10[compound] (M) -5.30103, single replicates
[6] = log10[compound] (M) -5.80103, single replicates
[7] = log10[compound] (M) -6.30103, single replicates
[8] = log10[compound] (M) -6.80103, single replicates
[9] = log10[compound] (M) -7.30103, single replicates
[10] = log10[compound] (M) -7.80103, single replicates
[11] = log10[compound] (M) -8.30103, single replicates
[12] = log10[compound] (M) -8.80103, single replicates
[13] = log10[compound] (M) -9.30103, single replicates
[14] = log10[compound] (M) -9.80103, single replicates
[15] = log10[compound] (M) -5.69897, replicate values
[16] = log10[compound] (M) -6.19897, replicate values
[17] = log10[compound] (M) -6.69897, replicate values
[18] = log10[compound] (M) -7.19897, replicate values
[19] = log10[compound] (M) -7.69897, replicate values
[20] = log10[compound] (M) -8.19897, replicate values
[21] = log10[compound] (M) -8.69897, replicate values
[22] = log10[compound] (M) -9.19897, replicate values
[23] = log10[compound] (M) -9.69897, replicate values
[24] = log10[compound] (M) -10.199, replicate values

T2 sequence (P62942 2-108 F37V limits assumed): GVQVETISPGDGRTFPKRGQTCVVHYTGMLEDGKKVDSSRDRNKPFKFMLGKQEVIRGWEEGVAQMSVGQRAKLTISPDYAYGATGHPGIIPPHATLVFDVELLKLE
T1 sequence (P62942 2-108 limits assumed): as the sequence (P62942 2-108 F37V limits assumed) above, with V36F counted along it

CC[C@H](C(=O)N1CCCC[C@H]1C(=O)O[C@H](CCc1ccc(OC)c(OC)c1)c1ccccc1OCC(=O)NCCCCCCCCNc1ccc2c(c1)C(=O)N(C1CCC(=O)NC1=O)C2=O)c1cc(OC)c(OC)c(OC)c1 (stereo partly drawn) [dTAG-47]
DMSO-normalized ratio of Nluc/Fluc signal (FKBP12^WT-Nluc; [5]): 84.1355 and 61.3325 and 70.7772 and 69.8836
DMSO-normalized ratio of Nluc/Fluc signal (FKBP12^WT-Nluc; [6]): 93.0264 and 83.3041 and 88.6237 and 105.071
DMSO-normalized ratio of Nluc/Fluc signal (FKBP12^WT-Nluc; [7]): 94.1663 and 90.3102 and 81.5579 and 90.5666
DMSO-normalized ratio of Nluc/Fluc signal (FKBP12^WT-Nluc; [8]): 110.721 and 121.213 and 82.3107 and 91.0391
DMSO-normalized ratio of Nluc/Fluc signal (FKBP12^WT-Nluc; [9]): 107.713 and 93.6392 and 128.788 and 92.5578
DMSO-normalized ratio of Nluc/Fluc signal (FKBP12^WT-Nluc; [10]): 103.034 and 105.226 and 82.6165 and 80.9641
DMSO-normalized ratio of Nluc/Fluc signal (FKBP12^WT-Nluc; [11]): 109.495 and 103.137 and 100.817 and 113.935
DMSO-normalized ratio of Nluc/Fluc signal (FKBP12^WT-Nluc; [12]): 108.489 and 81.746 and 104.598 and 105.548
DMSO-normalized ratio of Nluc/Fluc signal (FKBP12^WT-Nluc; [13]): 150.295 and 133.521 and 111.306 and 119.516
DMSO-normalized ratio of Nluc/Fluc signal (FKBP12^WT-Nluc; [14]): 91.0985 and 100.837 and 94.8437 and 78.0176
DMSO-normalized ratio of Nluc/Fluc signal (FKBP12^F36V-Nluc; [5]): 9.718 and 7.82 and 6.838 and 6.452
DMSO-normalized ratio of Nluc/Fluc signal (FKBP12^F36V-Nluc; [6]): 7.4356 and 7.1545 and 9.246 and 9.013
DMSO-normalized ratio of Nluc/Fluc signal (FKBP12^F36V-Nluc; [7]): 8.136 and 6.155 and 6.261 and 6.581
DMSO-normalized ratio of Nluc/Fluc signal (FKBP12^F36V-Nluc; [8]): 5.707 and 7.548 and 7.612 and 6.01
DMSO-normalized ratio of Nluc/Fluc signal (FKBP12^F36V-Nluc; [9]): 6.03 and 9.875 and 9.62 and 12.7928
DMSO-normalized ratio of Nluc/Fluc signal (FKBP12^F36V-Nluc; [10]): 18.7955 and 27.4949 and 18.2618 and 15.8294
DMSO-normalized ratio of Nluc/Fluc signal (FKBP12^F36V-Nluc; [11]): 42.6816 and 38.7415 and 32.3273 and 32.9688
DMSO-normalized ratio of Nluc/Fluc signal (FKBP12^F36V-Nluc; [12]): 36.5732 and 37.1776 and 61.6483 and 62.7104
DMSO-normalized ratio of Nluc/Fluc signal (FKBP12^F36V-Nluc; [13]): 80.6958 and 88.3567 and 73.7011 and 76.297
DMSO-normalized ratio of Nluc/Fluc signal (FKBP12^F36V-Nluc; [14]): 75.9613 and 95.4034 and 80.0547 and 73.0727
DMSO-normalized antiproliferation [1, 15]: 89.4983 and 102.295 and 92.5832 and 113.039
DMSO-normalized antiproliferation [1, 16]: 114.787 and 91.3098 and 99.5825 and 107.277
DMSO-normalized antiproliferation [1, 17]: 113.465 and 134.808 and 116.567 and 121.226
DMSO-normalized antiproliferation [1, 18]: 129.284 and 117.496 and 141.381 and 115.953
DMSO-normalized antiproliferation [1, 19]: 103.38 and 130.979 and 121.849 and 101.748
DMSO-normalized antiproliferation [1, 20]: 127.652 and 127.302 and 105.649 and 114.859
DMSO-normalized antiproliferation [1, 21]: 124.033 and 144.628 and 127.266 and 105.313
DMSO-normalized antiproliferation [1, 22]: 110.895 and 108.017 and 114.025 and 143
DMSO-normalized antiproliferation [1, 23]: 107.098 and 111.016 and 108.066 and 105.932
DMSO-normalized antiproliferation [1, 24]: 102.188 and 109.313 and 104.448 and 106.317
DMSO-normalized antiproliferation ([2]; log10[compound] (M) -5.69897): 10.0402 and 10.6917 and 15.8593 and 10.4467
DMSO-normalized antiproliferation ([2]; log10[compound] (M) -6.19897): 11.3488 and 8.236 and 4.984 and 9.032
DMSO-normalized antiproliferation ([2]; log10[compound] (M) -6.69897): 14.7066 and 10.4355 and 16.0487 and 8.1023
DMSO-normalized antiproliferation ([2]; log10[compound] (M) -7.19897): 11.6773 and 15.954 and 8.269 and 8.1914
DMSO-normalized antiproliferation ([2]; log10[compound] (M) -7.69897): 15.915 and 11.6328 and 15.6143 and 14.7735
DMSO-normalized antiproliferation ([2]; log10[compound] (M) -8.19897): 17.2515 and 18.6047 and 14.0328 and 13.4092
DMSO-normalized antiproliferation ([2]; log10[compound] (M) -8.69897): 38.6293 and 28.3831 and 27.3251 and 20.0636
DMSO-normalized antiproliferation ([2]; log10[compound] (M) -9.19897): 80.9673 and 68.7721 and 60.1519 and 83.6347
DMSO-normalized antiproliferation ([2]; log10[compound] (M) -9.69897): 92.188 and 73.717 and 97.9125 and 91.7258
DMSO-normalized antiproliferation ([2]; log10[compound] (M) -10.199): 111.244 and 86.8032 and 100.63 and 85.0157
DMSO-normalized antiproliferation [3, 15]: 66.3552 and 78.983 and 129.177 and 83.2821
DMSO-normalized antiproliferation [3, 16]: 96.6043 and 136.336 and 78.4431 and 113.952
DMSO-normalized antiproliferation [3, 17]: 106.502 and 122.166 and 122.162 and 152.939
DMSO-normalized antiproliferation [3, 18]: 97.4699 and 137.606 and 129.786 and 96.3913
DMSO-normalized antiproliferation [3, 19]: 105.363 and 127.754 and 134.499 and 162.317
DMSO-normalized antiproliferation [3, 20]: 108.061 and 166.691 and 180.246 and 124.553
DMSO-normalized antiproliferation [3, 21]: 122.542 and 158.966 and 101.253 and 156.902
DMSO-normalized antiproliferation [3, 22]: 124.955 and 178.332 and 114.428 and 108.403
DMSO-normalized antiproliferation [3, 23]: 90.3511 and 110.898 and 123.983 and 115.732
DMSO-normalized antiproliferation [3, 24]: 132.189 and 174.913 and 122.829 and 145.695
DMSO-normalized antiproliferation [4, 15]: 6.913 and 6.748 and 7.162 and 6.575
DMSO-normalized antiproliferation [4, 16]: 6.887 and 6.816 and 9.161 and 7.924
DMSO-normalized antiproliferation [4, 17]: 8.541 and 7.72 and 7.186 and 7.798
DMSO-normalized antiproliferation [4, 18]: 7.406 and 10.8399 and 10.8629 and 7.675
DMSO-normalized antiproliferation [4, 19]: 12.7188 and 13.025 and 10.8965 and 13.2658
DMSO-normalized antiproliferation [4, 20]: 32.6374 and 45.5784 and 27.329 and 36.3182
DMSO-normalized antiproliferation [4, 21]: 78.991 and 62.9303 and 95.6226 and 83.1029
DMSO-normalized antiproliferation [4, 22]: 131.499 and 101.289 and 106.245 and 113.716
DMSO-normalized antiproliferation [4, 23]: 70.9753 and 109.585 and 109.74 and 110.516
DMSO-normalized antiproliferation [4, 24]: 108.82 and 120.301 and 99.0114 and 87.8166
